According to patent US20230263822A1, “MODULATION OF FACTOR 11 EXPRESSION” (Ionis Pharmaceuticals, Inc., priority 2008, published 2023):
Strand notation (5' to 3'): a small letter for the sugar, then the base; units joined by * are phosphorothioate-linked, units joined directly phosphodiester-linked; [ ] holds rarer units or linkages, { } end groups; capitals alone tell only the bases. e = 2'-O-(2-methoxyethyl) (MOE); [5mC] = 5-methylcytosine; d = 2'-deoxy (DNA)

What was measured:
[1] = test system: human Factor 11 mRNA; test: Antisense inhibition of human Factor 11 in HepG2 cells by microwalk gapmers, lipofectin, 75 nM (Example 3); type: cell-based; conditions: HepG2 cells, lipofectin, gapmers targeted to nucleobases 1275 to 1318 of SEQ ID NO: 1
How it was run: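 HepG2 cells (10,000/well) were transfected via lipofectin with 75 nM 20-mer MOE gapmers (phosphorothioate, 5-methyl-C) for about 24 h. Factor 11 mRNA was measured by qRT-PCR, normalized to RIBOGREEN total RNA, and given as percent inhibition versus untreated cells.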

[2] = test system: human Factor 11 mRNA; test: Antisense inhibition of human Factor 11 in HepG2 cells, electroporation, 8,000 nM (Example 30); type: cell-based; conditions: electroporation, 8,000 nM antisense oligonucleotide
Description: These microwalk gapmers were tested in vitro. Cultured HepG2 cells at a density of 20,000 cells per well were transfected using electroporation with 8,000 nM antisense oligonucleotide. After a treatment period of approximately 24 hours, RNA was isolated from the cells and Factor 11 mRNA levels were measured by quantitative real-time PCR. Factor 11 mRNA levels were adjusted according to total RNA content, as measured by RIBOGREEN. Results are presented as percent inhibition of Factor 11, relative to untreated control cells.
The chimeric antisense oligonucleotides in Table 44 were designed as 5-10-5 MOE, 5-8-5 and 6-8-6 MOE gapmers. The first two listed gapmers in Table 44 are the original gapmers (ISIS 416850 and ISIS 416858) from which ISIS 445493-445543 were designed via microwalk, and are designated by an asterisk. The 5-10-5 gapmers are 20 nucleotides in length, wherein the central gap segment is comprised of ten 2′-deoxynucleotides and is flanked on both sides (in the 5′ and 3′ directions) by wings comprising five nucleotides each. The 5-8-5 gapmers are 18 nucleotides in length, wherein the central gap segment is comprised of eight 2′-deoxynucleotides and is flanked on both sides (in the 5′ and 3′ directions) by wings comprising five nucleotides each. The 6-8-6 gapmers are 20 nucleotides in length, wherein the central gap segment is comprised of eight 2′-deoxynucleotides and is flanked on both sides (in the 5′ and 3′ directions) by wings comprising six nucleotides each. For each of the motifs (5-10-5, 5-8-5 and 6-8-6), each nucleotide in the 5′ wing segment and each nucleotide in the 3′ wing segment has a 2′-MOE modification. The internucleoside linkages throughout each gapmer are phosphorothioate (P=S) linkages. All cytidine residues throughout each gapmer are 5-methylcytidines. “Human Target start site” indicates the 5′-most nucleotide to which the gapmer is targeted in the human sequence. “Human Target stop site” indicates the 3′-most nucleotide to which the gapmer is targeted in the human sequence. Each gapmer listed in Table 44 is targeted to SEQ ID NO: 1 (GENBANK Accession No. NM_000128.3). Each gapmer is Table 44 is also fully cross-reactive with the rhesus monkey Factor 11 gene sequence, designated herein as SEQ ID NO: 274 (exons 1-15 GENBANK Accession No. NW_001118167.1). ‘Rhesus monkey start site’ indicates the 5′-most nucleotide to which the gapmer is targeted in the rhesus monkey sequence. ‘Rhesus monkey stop site’ indicates the 3′-most nucleotide to which the gapmer is targeted to the rhesus monkey sequence.

Substance	% inhibition [1] [%]	Percent inhibition of human Factor 11 mRNA levels [2] [%]
416853 (antisense eT*eT*eG*eG*eT*dG*d[5mC]*dA*d[5mC]*dA*dG*dT*dT*dT*d[5mC]*eT*eG*eG*e[5mC]*eA) [compound 416853]	91	84
416854 (antisense eA*eT*eT*eG*eG*dT*dG*d[5mC]*dA*d[5mC]*dA*dG*dT*dT*dT*e[5mC]*eT*eG*eG*e[5mC]) [compound 416854]	90	86
416855 (antisense e[5mC]*eA*eT*eT*eG*dG*dT*dG*d[5mC]*dA*d[5mC]*dA*dG*dT*dT*eT*e[5mC]*eT*eG*eG) [compound 416855]	87	85
416862 (antisense eA*eG*e[5mC]*eG*eG*dA*d[5mC]*dG*dG*d[5mC]*dA*dT*dT*dG*dG*eT*eG*e[5mC]*eA*e[5mC]) [compound 416862]	90	89
416865 (antisense eT*eG*eG*e[5mC]*eA*dG*d[5mC]*dG*dG*dA*d[5mC]*dG*dG*d[5mC]*dA*eT*eT*eG*eG*eT) [compound 416865]	88	86
445510 (antisense eG*e[5mC]*eG*eG*eA*e[5mC]*dG*dG*d[5mC]*dA*dT*dT*dG*dG*eT*eG*e[5mC]*eA*e[5mC]*eA) [compound 445510]		88
445511 (antisense eA*eG*e[5mC]*eG*eG*eA*d[5mC]*dG*dG*d[5mC]*dA*dT*dT*dG*eG*eT*eG*e[5mC]*eA*e[5mC]) [compound 445511]		77
445512 (antisense e[5mC]*eA*eG*e[5mC]*eG*eG*dA*d[5mC]*dG*dG*d[5mC]*dA*dT*dT*eG*eG*eT*eG*e[5mC]*eA) [compound 445512]		79
445514 (antisense eG*eG*e[5mC]*eA*eG*e[5mC]*dG*dG*dA*d[5mC]*dG*dG*d[5mC]*dA*eT*eT*eG*eG*eT*eG) [compound 445514]		81
445515 (antisense eT*eG*eG*e[5mC]*eA*eG*d[5mC]*dG*dG*dA*d[5mC]*dG*dG*d[5mC]*eA*eT*eT*eG*eG*eT) [compound 445515]		75
445516 (antisense e[5mC]*eT*eG*eG*e[5mC]*eA*dG*d[5mC]*dG*dG*dA*d[5mC]*dG*dG*e[5mC]*eA*eT*eT*eG*eG) [compound 445516]		79
445517 (antisense eA*e[5mC]*eT*eG*eG*e[5mC]*dA*dG*d[5mC]*dG*dG*dA*d[5mC]*dG*eG*e[5mC]*eA*eT*eT*eG) [compound 445517]		74
445518 (antisense eA*eG*eT*eT*eT*d[5mC]*dT*dG*dG*d[5mC]*dA*dG*dG*e[5mC]*e[5mC]*eT*e[5mC]*eG) [compound 445518]		75
445519 (antisense e[5mC]*eA*eG*eT*eT*dT*d[5mC]*dT*dG*dG*d[5mC]*dA*dG*eG*e[5mC]*e[5mC]*eT*e[5mC]) [compound 445519]		81
445520 (antisense eA*e[5mC]*eA*eG*eT*dT*dT*d[5mC]*dT*dG*dG*d[5mC]*dA*eG*eG*e[5mC]*e[5mC]*eT) [compound 445520]		82
445521 (antisense e[5mC]*eA*e[5mC]*eA*eG*dT*dT*dT*d[5mC]*dT*dG*dG*d[5mC]*eA*eG*eG*e[5mC]*e[5mC]) [compound 445521]		87
445523 (antisense eT*eG*e[5mC]*eA*e[5mC]*dA*dG*dT*dT*dT*d[5mC]*dT*dG*eG*e[5mC]*eA*eG*eG) [compound 445523]		73

Substance	% inhibition [1] [%]	Percent inhibition of human Factor 11 mRNA levels [2] [%]
445524 (antisense eG*eT*eG*e[5mC]*eA*d[5mC]*dA*dG*dT*dT*dT*d[5mC]*dT*eG*eG*e[5mC]*eA*eG) [compound 445524]		75
445525 (antisense eG*eG*eT*eG*e[5mC]*dA*d[5mC]*dA*dG*dT*dT*dT*d[5mC]*eT*eG*eG*e[5mC]*eA) [compound 445525]		85
445526 (antisense eT*eG*eG*eT*eG*d[5mC]*dA*d[5mC]*dA*dG*dT*dT*dT*e[5mC]*eT*eG*eG*e[5mC]) [compound 445526]		81
445527 (antisense eT*eT*eG*eG*eT*dG*d[5mC]*dA*d[5mC]*dA*dG*dT*dT*eT*e[5mC]*eT*eG*eG) [compound 445527]		70
445528 (antisense eA*eT*eT*eG*eG*dT*dG*d[5mC]*dA*d[5mC]*dA*dG*dT*eT*eT*e[5mC]*eT*eG) [compound 445528]		73
445529 (antisense e[5mC]*eA*eT*eT*eG*dG*dT*dG*d[5mC]*dA*d[5mC]*dA*dG*eT*eT*eT*e[5mC]*eT) [compound 445529]		85
445533 (antisense eA*e[5mC]*eG*eG*e[5mC]*dA*dT*dT*dG*dG*dT*dG*d[5mC]*eA*e[5mC]*eA*eG*eT) [compound 445533]		87
445534 (antisense eG*eA*e[5mC]*eG*eG*d[5mC]*dA*dT*dT*dG*dG*dT*dG*e[5mC]*eA*e[5mC]*eA*eG) [compound 445534]		82
445535 (antisense eG*eG*eA*e[5mC]*eG*dG*d[5mC]*dA*dT*dT*dG*dG*dT*eG*e[5mC]*eA*e[5mC]*eA) [compound 445535]		83
445536 (antisense e[5mC]*eG*eG*eA*e[5mC]*dG*dG*d[5mC]*dA*dT*dT*dG*dG*eT*eG*e[5mC]*eA*e[5mC]) [compound 445536]		82
445537 (antisense eG*e[5mC]*eG*eG*eA*d[5mC]*dG*dG*d[5mC]*dA*dT*dT*dG*eG*eT*eG*e[5mC]*eA) [compound 445537]		78
445538 (antisense eA*eG*e[5mC]*eG*eG*dA*d[5mC]*dG*dG*d[5mC]*dA*dT*dT*eG*eG*eT*eG*e[5mC]) [compound 445538]		80
445539 (antisense e[5mC]*eA*eG*e[5mC]*eG*dG*dA*d[5mC]*dG*dG*d[5mC]*dA*dT*eT*eG*eG*eT*eG) [compound 445539]		79
445540 (antisense eG*e[5mC]*eA*eG*e[5mC]*dG*dG*dA*d[5mC]*dG*dG*d[5mC]*dA*eT*eT*eG*eG*eT) [compound 445540]		74
445541 (antisense eG*eG*e[5mC]*eA*eG*d[5mC]*dG*dG*dA*d[5mC]*dG*dG*d[5mC]*eA*eT*eT*eG*eG) [compound 445541]		80
445542 (antisense eT*eG*eG*e[5mC]*eA*dG*d[5mC]*dG*dG*dA*d[5mC]*dG*dG*e[5mC]*eA*eT*eT*eG) [compound 445542]		83
445543 (antisense e[5mC]*eT*eG*eG*e[5mC]*dA*dG*d[5mC]*dG*dG*dA*d[5mC]*dG*eG*e[5mC]*eA*eT*eT) [compound 445543]		74
